How the values were obtained:
Type in all cases: in vivo, cat
feline model of GERD [1] = assay: Lower esophageal sphincter pressure (LESP), manometric recording in sedated cats; details: MKC-733 1.0 and 10 mg/kg i.v., naive and omeprazole pretreated, FIG. 2
Method: (§1) Experiments to determine the effects of MKC-733, omeprazole or the combination of MKC-733 and omeprazole on LESP, lower esophageal pH, esophageal motility and TLESR, in a feline model of GERD were conducted.
The cats used in the experiments were fasted overnight and sedated with ketamine (15-20 mg/kg intramuscular injection). A butterfly catheter filled with heparinized sterile saline was placed into the brachial vein and used for supplemental ketamine anesthesia and drug administration.
Each animal was fitted with a water-perfused sleeve catheter (Andorfer Inc, Greendale, Wis.) attached via pressure transducers to a minimally compliant hydrolytic pump. […] This 4 cm region was referred to as site 1 and the pressure was simultaneously recorded along this region. […] Throughout the experiment, the output from the pressure transducers was manometrically recorded using the PowerLab Chart 5 data acquisition program (ADInstruments, Colorado Springs, Colo.) on a computer using a Windows XP operating system.
The manometric pressure recording at site 1 of the catheter provided the baseline (at rest) LESP for each animal. The baseline LESP was recorded for each measurement regimen set forth in Experiments 1 and 2 below, and then compared. […]
(§2) Following instrumentation, baseline values of LESP, esophageal pH, esophageal peristalsis and TLESR were measured as described above. […]

feline model of GERD [2] = assay: Lower esophageal pH monitoring during gastroesophageal reflux in sedated cats; details: naive, MKC-733 1.0 and 10 mg/kg i.v.
Method: as §1
An Orion II pH probe (Medical Measurements Systems), running along with the manometric catheter, was positioned with one pH measuring site in the stomach and a second pH measuring site in the distal esophagus. pH was monitored and recorded simultaneously with the manometric recordings using a computerized data acquisition system (Medical Measurements Systems).
The pH in the lower esophagus was monitored at the same time as the manometric pressure. The pH was recorded for each measurement regimen set forth in Experiments 1 and 2.
All animals were acclimated to the facility for one week prior to testing. […]
as §2
Data is presented as mean±SEM. […] Significance of LESP treatment effects within and between experiments was evaluated using 2-Way repeated measures ANOVA. […] Significance of treatment effects for pH was evaluated using a nonparametric one-way repeated measures ANOVA (Friedman Test). […]
In 2 of the 5 animals, the 10 mg/kg dose was not administered. In 1 of the 3 remaining animals, pH was also not recorded following the […] dose.

feline model of GERD [3] = assay: Esophageal motility: peristaltic contraction amplitude after spontaneous dry swallows and balloon distension in cats
Method: as §1
Each animal was fitted with a water-perfused sleeve catheter (Andorfer Inc, Greendale, Wis.) attached via pressure transducers to a minimally compliant hydrolytic pump. The sleeve was positioned within the LES with the tip placed into the stomach. The total distance between recording site 0 (tip in the stomach) and recording site 2 was 4 cm. This 4 cm region was referred to as site 1 and the pressure was simultaneously recorded along this region. […] Throughout the experiment, the output from the pressure transducers was manometrically recorded using the PowerLab Chart 5 data acquisition program (ADInstruments, Colorado Springs, Colo.) on a computer using a Windows XP operating system.
The manometric pressure recordings at sites 1-5 of the sleeve catheter were recorded during primary peristalsis induced by three spontaneous dry swallows (SDS) and secondary peristalsis induced by 3 balloon distensions (BD; distension of a balloon catheter 2 cm in diameter for 5 second placed in the mid portion of the esophagus).
Esophageal motility was characterized based on the amplitude of the contractions recorded at sites 2-5 of the catheter in response to three SDS and three BD. […]

## O=C(N[C@H]1CN2CCC1CC2)c1c[nH]c2ccsc2c1=O [MKC-733, (R)—N-1-azabicyclo[2.2.2]oct-3-yl-4,7-dihydro-7-oxothieno[3,2-b]pyridine-6-carboxamide]
Feline model of GERD [1]
  LESP normalized to vehicle controls within experiments: statistically significant dose-dependent increase in LESP
Feline model of GERD [2]; FIG. 3
  percentage of time during gastroesophageal (GER) episodes when lower esophageal pH was greater than 4.0: positive trend that appeared dose-dependent
Feline model of GERD [2]; FIG. 4
  nadir pH values during GER: did not effect nadir pH values
Feline model of GERD [3]; MKC-733 1.0 and 10 mg/kg i.v., normalized to vehicle, FIG. 5
  oral-to-aboral peristaltic contraction amplitude: dose-dependent significant enhancement
Feline model of GERD [3]; MKC-733 i.v., data not shown
  difference in effect on peristaltic contraction amplitude between naive cats and those pretreated with omeprazole: no significant differences
